From the supplement of paper PMC10307832

How the values were obtained:
Assay in all cases: relative viability (nuclei count vs DMSO), 5 days (fraction); higher = more cells survive
Pifithrin_alpha = compound: CC1=CC=C(C=C1)C(=O)CN2C3=C(CCCC3)SC2=N [Pifithrin_alpha]
How it was run: (§1)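 Lung cancer cell lines were seeded into 1536-well plates, kept overnight at 37 °C and pinned with five library-drug doses (not always all listed) spaced by √10. After 5 days, nuclei were Hoechst-stained, imaged at 4× and counted with MetaXpress. Viability is treated-well nuclei over vehicle-well nuclei, taken as a median across plates. Plates needed control CV below 25% and at least one doubling.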

Axitinib = compound: CNC(=O)c1ccccc1Sc1ccc2c(/C=C/c3ccccn3)n[nH]c2c1 [Axitinib]
How it was run: as §1

Bemcentinib = compound: Nc1nc(Nc2ccc3c(c2)CC[C@@H](N2CCCC2)CC3)nn1-c1cc2c(nn1)-c1ccccc1CCC2 [Bemcentinib]
How it was run: as §1

Bemcentinib + Foretinib = compound: Nc1nc(Nc2ccc3c(c2)CC[C@@H](N2CCCC2)CC3)nn1-c1cc2c(nn1)-c1ccccc1CCC2 [Bemcentinib] + COc1cc2c(Oc3ccc(NC(=O)C4(C(=O)Nc5ccc(F)cc5)CC4)cc3F)ccnc2cc1OCCCN1CCOCC1 [Foretinib] (partner 0.25 µM)
How it was run: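 Relative viability equals treated-well nuclei counts divided by vehicle-well nuclei counts. Counts came from 4× images of lung cancer cell lines grown in 1536-well plates for 5 days after pin-tool dosing on the day after seeding. Dosing used one drug alone or a fixed anchor-drug dose plus five library-drug doses (not always all listed) in √10 steps, and values are medians of duplicate plates.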

| Cell Line | relative viability (Pifithrin_alpha; 1 µM) | relative viability (Pifithrin_alpha; 3.162 µM) | relative viability (Pifithrin_alpha; 10 µM) | relative viability (Pifithrin_alpha; 31.62 µM) | relative viability (Pifithrin_alpha; 100 µM) | relative viability (Axitinib; 0.005 µM) | relative viability (Axitinib; 0.01581 µM) | relative viability (Axitinib; 0.05 µM) | relative viability (Axitinib; 0.1581 µM) | relative viability (Axitinib; 0.5 µM) | relative viability (Bemcentinib; 0.04 µM) | relative viability (Bemcentinib; 0.1265 µM) | relative viability (Bemcentinib; 0.4 µM) | relative viability (Bemcentinib; 1.265 µM) | relative viability (Bemcentinib; 4 µM) | relative viability (Bemcentinib + Foretinib; first compound 0.04 µM) | relative viability (Bemcentinib + Foretinib; first compound 0.1265 µM) | relative viability (Bemcentinib + Foretinib; first compound 0.4 µM) | relative viability (Bemcentinib + Foretinib; first compound 1.265 µM) | relative viability (Bemcentinib + Foretinib; first compound 4 µM) |
| --- | --- | --- | --- | --- | --- | --- | --- | --- | --- | --- | --- | --- | --- | --- | --- | --- | --- | --- | --- | --- |
| SW 900 | 0.706 | 0.643 | 0.75 | 0.648 | 0.653 | 0.929 | 0.584 | 0.724 | 0.92 | 1.01 | 0.772 | 0.97 | 0.913 | 0.742 | 0.871 | 0.827 | 0.948 | 0.976 | 1.05 | 0.974 |
| LK-2 | 0.975 | 1.18 | 1.12 |  | 1.25 | 0.976 | 0.746 | 0.816 | 0.823 | 0.822 | 0.969 | 1.26 | 1.25 | 1.06 | 1.01 | 1.51 |  | 1.29 | 1.35 | 1.49 |
| NCI-H2087 | 0.932 | 1.13 | 1.02 | 0.63 | 0.958 | 0.939 | 1.09 | 0.996 | 1.02 | 0.986 | 1.12 | 1.2 | 1.07 | 0.969 | 1.03 | 1.08 | 1.32 | 1.14 | 1.21 | 0.937 |
| NCI-H661 | 0.948 | 1.01 | 0.988 | 1.02 | 0.873 | 1.01 | 1.02 | 0.987 | 0.96 | 1.02 | 0.965 | 1.07 | 0.994 | 1.01 | 0.964 | 0.969 | 1.04 | 1.01 | 0.981 | 0.986 |
| NCI-H2170 | 0.989 | 1.04 | 0.875 | 0.948 | 0.962 | 1.1 | 0.975 | 1.01 | 0.974 | 1 | 1.09 | 1.09 | 0.991 | 0.999 | 0.899 | 0.971 | 1.16 | 1.02 | 1.03 | 0.993 |
| NCI-H1623 | 0.905 | 0.924 | 0.834 | 0.677 | 0.803 | 1.12 | 0.945 | 0.884 | 1.02 | 0.984 | 0.956 | 0.935 | 0.971 | 1.03 | 0.929 | 0.857 | 0.742 | 0.853 | 1.01 | 0.934 |
| LCLC-103H | 0.996 | 0.974 | 0.959 | 0.848 | 0.887 | 0.946 | 0.973 | 1 | 0.959 | 0.867 | 0.992 | 1.07 | 0.96 | 1.04 | 0.994 | 0.752 | 0.787 | 0.778 | 0.918 | 0.825 |
| NCI-H441 | 1.08 | 1.21 | 1.03 | 0.721 | 1.23 | 1.07 | 1.07 | 1.11 | 1.22 | 1.1 | 1.01 | 1.23 | 1.04 | 0.915 | 1.26 | 1.16 | 1.05 | 0.892 | 0.917 | 0.875 |
| A549 | 1.03 | 1.01 | 1 | 0.889 | 1.01 | 0.997 | 0.95 | 0.95 | 0.877 | 1.02 | 0.977 | 1.13 | 0.984 | 1.04 | 1.02 | 0.95 | 1.03 | 0.977 | 1.08 | 1.11 |
| LOU-NH91 | 0.774 | 0.911 | 0.878 | 0.731 | 0.765 | 0.989 | 0.796 | 1.05 | 0.973 | 1 | 0.912 | 0.955 | 1 | 0.984 | 0.997 | 0.891 | 0.895 | 0.933 | 1.02 | 0.988 |
| NCI-H647 | 0.949 | 0.916 | 0.889 | 0.722 | 0.849 | 1.14 | 0.97 | 1.03 | 0.968 | 1.15 | 1.06 | 1.09 | 0.989 | 0.971 | 1.03 | 1.33 | 1.22 | 1.24 | 1.49 | 1.2 |
| NCI-H1915 | 0.887 | 1.03 | 0.737 |  | 1.08 | 1 | 1.07 | 0.982 | 0.99 | 0.999 | 1.01 | 1.1 | 1.05 | 0.947 | 0.958 | 1.11 | 1.08 | 1.15 | 1.07 | 1.17 |
| NCI-H1944 | 0.898 | 0.826 | 0.781 | 0.451 | 0.71 | 1.04 | 0.952 | 1.02 | 0.943 | 0.761 | 0.968 | 1.05 | 0.993 | 0.941 | 0.988 | 0.876 | 0.924 | 0.866 | 0.951 | 0.865 |
| HARA | 0.906 | 0.783 | 0.916 | 0.65 | 0.853 | 1.05 | 0.79 | 0.887 | 0.756 | 1.12 | 0.899 | 1.28 | 0.995 | 0.82 | 0.951 | 0.856 | 1.11 | 1.01 | 1.04 | 0.958 |
| NCI-H2347 | 0.954 | 1.03 | 1.07 | 0.744 | 1.03 | 0.983 | 0.959 | 1.09 | 1.06 | 0.951 | 0.953 | 1.17 | 1.06 | 0.956 | 1.04 | 0.831 | 0.847 | 0.891 | 0.834 | 0.763 |
